Non-standard residues stand in square brackets, D forms with d. Residues, ends and D or L forms follow the SMILES beside them. pGlu = O=C1CC[C@@H](C(=O)O)N1

Our source for the IC50 values is ChEMBL document CHEMBL1152001 (Bioorg Med Chem Lett, 1993).

For this assay, the target named is Substance-P receptor (Rattus norvegicus, UniProt P14600). The experiment in a line: Tested for inhibition of tachykinin 1 (NK1) receptor in rat brain synaptosomal membranes using [125I]BH-SP as radioligand. The format is cell membranes, Membrane.
Sequence of Substance-P receptor (P14600 whole entry): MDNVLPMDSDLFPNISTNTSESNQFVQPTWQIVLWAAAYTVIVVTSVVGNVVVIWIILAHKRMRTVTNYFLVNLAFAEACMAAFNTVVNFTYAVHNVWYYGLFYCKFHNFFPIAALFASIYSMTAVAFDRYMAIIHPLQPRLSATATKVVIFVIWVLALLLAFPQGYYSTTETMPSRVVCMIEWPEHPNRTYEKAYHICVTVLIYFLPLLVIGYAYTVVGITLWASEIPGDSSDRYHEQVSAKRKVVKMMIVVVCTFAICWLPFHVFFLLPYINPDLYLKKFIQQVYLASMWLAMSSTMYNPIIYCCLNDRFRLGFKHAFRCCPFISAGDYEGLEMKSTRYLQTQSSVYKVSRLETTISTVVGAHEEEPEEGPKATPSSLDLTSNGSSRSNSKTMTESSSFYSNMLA
Take `CC[C@H](C)[C@H](NC(=O)[C@H](Cc1ccccc1)NC(=O)[C@H](C)NC(=O)[C@H](CC(=O)O)NC(=O)[C@H](CCCCN)NC(=O)[C@H](CO)NC(=O)[C@@H]1CCCN1C(=O)[C@@H]1CCC(=O)N1)C(=O)NCC(=O)N[C@@H](CC(C)C)C(=O)N[C@@H](CCSC)C(N)=O` ([pGlu]PSKDAFIGLM-NH2): the IC50 turned out to be 31 nM.

On to `CSCC[C@H](NC(=O)[C@H](CC(C)C)NC(=O)CNC(=O)[C@H](Cc1ccc(O)cc1)NC(=O)[C@H](Cc1ccccc1)NC(=O)[C@H](CCCCN)NC(=O)[C@H](CC(N)=O)NC(=O)[C@@H]1CCCN1C(=O)[C@H](CC(=O)O)NC(=O)[C@H](C)NC(=O)[C@@H]1CCC(=O)N1)C(N)=O` ([pGlu]ADPNKFYGLM-NH2), for which the half-maximal inhibitory concentration (IC50) was determined as 2.3 nM.

Turning to `CSCC[C@H](NC(=O)[C@H](CC(C)C)NC(=O)CNC(=O)[C@@H](NC(=O)[C@H](Cc1ccccc1)NC(=O)[C@H](CCC(N)=O)NC(=O)[C@H](CC(=O)O)NC(=O)[C@H](CO)NC(=O)[C@H](CCCCN)NC(=O)[C@@H]1CCCN1C(=O)[C@@H](NC(=O)[C@@H](N)CC(=O)O)C(C)C)C(C)C)C(N)=O` [KASSININ], the IC50 was found to be 75 nM.

For `CSCC[C@H](NC(=O)[C@H](CC(C)C)NC(=O)CNC(=O)[C@@H](NC(=O)[C@H](Cc1ccccc1)NC(=O)[C@H](Cc1ccccc1)NC(=O)[C@H](CC(=O)O)NC(=O)[C@H](Cc1c[nH]cn1)NC(=O)[C@H](CCSC)NC(=O)[C@@H](N)CC(=O)O)C(C)C)C(N)=O` [NEUROKININ B], the IC50 turned out to be 870 nM.

Broadly, the IC50 is the midpoint of a concentration-inhibition curve.
